From article PMC10167036, “The discovery and characterization of AeHGO in the branching route from shikonin biosynthesis to shikonofuran in Arnebia euchroma” (Frontiers in Plant Science, 2023)

System: T1, AeHGO
T1 construct: full-length, N-terminal His-tag (pCold II), E. coli Transetta, IMAC purified, tag cut not mentioned; cloning primers encode N-terminus MGNSAE and C-terminus NTLKTA
Test: UPLC product assay, Michaelis-Menten fit
Format: biochemical, Arnebia euchroma
Settings: basic assay 50 mM MES-Tris pH 7.5, 37°C
From the text: UPLC product assay, Michaelis-Menten fit on AeHGO

[1] = oxidation, 500 µM NADP+, apparent

| Km [1] | SMILES | further results |
| --- | --- | --- |
| – | CC(C)=CCC/C(C=O)=C\Cc1cc(O)ccc1O [compound 3, (E)-3’’-oxo-GHQ] | Km (reduction, 500 µM NADPH, apparent, fit at low substrate concentrations because of substrate inhibition): 9.96 ± 2.87 µM |
| 24.7 ± 5.18 µM | CC(C)=CCC/C(=C/Cc1cc(O)ccc1O)CO [compound 1, (Z)-3’’-OH-GHQ] | – |
| 18.7 ± 5.39 µM | CC(C)=CCC/C(=C\Cc1cc(O)ccc1O)CO [compound 2, (E)-3’’-OH-GHQ] | – |
| – | NC(=O)c1ccc[n+]([C@@H]2O[C@H](COP(=O)(O)OP(=O)(O)OC[C@H]3O[C@@H](n4cnc5c(N)ncnc54)[C@H](OP(=O)(O)O)[C@@H]3O)[C@@H](O)[C@H]2O)c1 [NADP^+] | Km (oxidation, 500 µM (Z)-3''-OH-GHQ): 17.8 ± 5.62 µM |
